In brackets after ≈: the same amount, converted by molar mass. Where no end group is shown, it is not given here.
Experiments:
Type in all cases: cell-based
Listeria monocytogenes [1] = experiment: Cow milk assay, MIC against Listeria monocytogenes; conditions: control, milk-free (and reference drug), read-out: Minimal inhibitory concentration
Method: In vitro experiments were conducted to test the behavior of the peptides as disclosed herein in 3.5% fat cow milk, against Listeria monocytogenes. The peptide according to the SEQ ID N° 1 was adjusted to a concentration of 1 mg/ml and mixed with cow milk in equal parts. This mixture was incubated overnight at 37° C. To remove solid parts of the milk, the mixture was centrifuged and the obtained supernatant was used for MICs.

Botrytis cinerea = experiment: microbe, parasite or virus in culture
Method: (§1) The antimicrobial potential of the peptides described herein was compared with the activity of two other AMPs, TcAMP1 and TcAMP2 as discussed in WO1998027805, and antibiotics or fungicides. Comparative MIC assays were carried out against several bacterial and fungal species (Table 1).
(§2) Peptides according to SEQ ID N° 1, SEQ ID N° 2, SEQ ID N° 4, SEQ ID N° 6, and SEQ ID N° 7 were serially diluted in order to create a concentration sequence ranging from 0.39 μg/ml to […].
(§3) Pantoea, Staphylococcus, and Listeria were cultured in Trypticase Soy Broth (TSY) medium consisting of 1.7% casein peptone, 0.3% soy peptone, 0.25% glucose, 0.5% NaCl, 0.25% K2HPO4 and optionally 1.5% agar. Candida cells were cultured in Yeast Extract Peptone Dextrose (YPD) broth medium consisting of 1% yeast extract, 2% peptone, 2% glucose, and optionally 2% agar. Ceratocystis, Botrytis, Leptosphaeria, Mycosphaerella, Sclerotinia, and Verticillium were cultured in Potato Dextrose Agar (PDA) medium consisting of 2.4% Difco pre-mix broth and optionally 1.5% agar.
(§4) For the MIC assay bacteria and fungi were grown on agar plates with their respective media. Pre-cultures were prepared by inoculating either single bacterial colonies or small pieces of fungi in 5 ml of the respective liquid medium. The optical density (OD) at 600 nm was measured after one to five days and adjusted to an OD600 of 1. This cell suspension was used to prepare 1:500 dilutions, corresponding to approximately 2×10^6 microbial cells per ml.
(§5) To evaluate MICs, 96-well plates were prepared with the test antimicrobial peptides. Each well contained 100 μl microbial cell culture, 90 μl culture medium, and 10 μl peptide or control at the corresponding dilution. The plates were incubated overnight (ON) at the optimal growth temperature for each tested organism (Table 1). Results were visually evaluated and MICs determined based on growth or no-growth.
(§6) MIC assays were conducted in at least two independent replicates and with different peptide starting concentrations.

Candida albicans = experiment: microbe, parasite or virus in culture
Method: as §1, §2, §3, §4, §5, §6

Leptosphaeria maculans = experiment: microbe, parasite or virus in culture
Method: as §1, §2, §3, §4, §5, §6

Listeria monocytogenes [2] = experiment: microbe, parasite or virus in culture
Method: as §1, §2, §3, §4, §5, §6

Mycosphaerella pinodes = experiment: microbe, parasite or virus in culture
Method: as §1, §2, §3, §4, §5, §6

Sclerotinia sclerotiorum = experiment: microbe, parasite or virus in culture
Method: as §1, §2, §3, §4, §5, §6

[3] = tested on: Staphylococcus aureus MRSA; experiment: microbe, parasite or virus in culture
Method: as §1, §2, §3, §4, §5, §6

Verticillium dahliae = experiment: microbe, parasite or virus in culture
Method: as §1, §2, §3, §4, §5, §6

Ceratosystis paradoxa = experiment: organism not typed
Method: as §1, §2, §3, §4, §5, §6

Pantoea agglomerans = tested on: Pantoea agglomerans
Method: as §1, §2, §3, §4, §5, §6

Compound | MIC (Listeria monocytogenes [1]) [µg/mL] | Minimal inhibitory concentration (Botrytis cinerea) [µg/mL] | Minimal inhibitory concentration (Candida albicans) [µg/mL] | Minimal inhibitory concentration (Leptosphaeria maculans) [µg/mL] | Minimal inhibitory concentration (Listeria monocytogenes [2]) [µg/mL] | Minimal inhibitory concentration (Mycosphaerella pinodes) [µg/mL] | Minimal inhibitory concentration (Sclerotinia sclerotiorum) [µg/mL] | Minimal inhibitory concentration [3] [µg/mL] | Minimal inhibitory concentration (Verticillium dahliae) [µg/mL] | Minimal inhibitory concentration (Ceratosystis paradoxa) [µg/mL] | Minimal inhibitory concentration (Pantoea agglomerans) [µg/mL] | MIC (Listeria monocytogenes [2]; DSM102976, Listeria monocytogenes DSM 102976, TSY, 37° C., overnight, read-out: Minimal inhibitory concentration) [µg/mL] | MIC ([3]; DSM 11729 / MRSA, Staphylococcus aureus MRSA DSM 11729, TSY, 37° C., overnight, read-out: Minimal inhibitory concentration) [µg/mL]
CN(C)[C@@H]1C(O)=C(C(N)=O)C(=O)[C@@]2(O)C(O)=C3C(=O)c4c(O)cccc4[C@@](C)(O)[C@H]3C[C@@H]12 [Tetracycline, tetracycline] | 1.6 (≈ 3.6 µM) |  |  |  |  |  |  |  |  |  |  |  | 
YERDPRQQYEQCQRRCESEATEEREQEQCEQRCEREYKEQQRQQEEE (cysteines drawn unpaired) [SEQ ID No 6] |  | 14.5 | 13.1 | 37.9 | 3.25 | 13.12 | 27.2 | 13 | 14.5 | 4.8 | 7.9 |  | 
[H]/N=C(/N)N[C@H]1[C@H](O)[C@@H](O)[C@H](O[C@@H]2O[C@@H](C)[C@](O)(C=O)[C@H]2O[C@@H]2O[C@@H](CO)[C@H](O)[C@@H](O)[C@@H]2NC)[C@@H](N/C(N)=N\[H])[C@@H]1O [Streptomycin] |  |  |  |  |  |  |  |  |  |  |  | 7.8 (≈ 13.4 µM) | > 125
LQRQYQQCQGRCQEQQQGQREQQQCQRKCWEQYKEQERGEHENYHNHKKNRSEEEEGQQR (cysteines drawn unpaired) [SEQ ID No 7] |  | 12.75 | 12.75 | 9.4 | 13.6 | 10.68 | 23.5 | 13.6 | 12.7 | 4.7 | 9.45 |  | 

Reference: patent US20250296963A1, “PEPTIDE HAVING ANTIMICROBIAL ACTIVITY” (priority 2022, published 2025)
